Laboratory results reported in ChEMBL document CHEMBL1152560, “Substituted 2-arylbenzothiazoles as kinase inhibitors: hit-to-lead optimization” (Bioorg Med Chem, 2009).

Experiments:
[1] = target: T1, Phosphorylase b kinase gamma catalytic chain, liver/testis isoform (Homo sapiens) (UniProt P15735); experiment: Residual activity of PHKG2 at 0.1 uM by microplate scintillation counting
T1 sequence (whole entry): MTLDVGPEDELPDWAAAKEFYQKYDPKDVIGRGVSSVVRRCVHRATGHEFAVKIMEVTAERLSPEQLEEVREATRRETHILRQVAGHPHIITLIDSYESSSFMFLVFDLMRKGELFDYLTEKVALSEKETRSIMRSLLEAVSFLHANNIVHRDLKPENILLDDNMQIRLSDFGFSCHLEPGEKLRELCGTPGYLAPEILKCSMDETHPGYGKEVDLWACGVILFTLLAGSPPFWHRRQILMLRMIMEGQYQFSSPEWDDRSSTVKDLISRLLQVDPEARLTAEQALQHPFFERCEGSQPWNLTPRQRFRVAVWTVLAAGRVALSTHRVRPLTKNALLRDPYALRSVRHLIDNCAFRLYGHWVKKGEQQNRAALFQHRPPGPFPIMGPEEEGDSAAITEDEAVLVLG

[2] = target: Proto-oncogene tyrosine-protein kinase Src (Homo sapiens) (UniProt P12931); experiment: Residual activity of SRC at 10 uM by microplate scintillation counting
[3] = test system: RAF proto-oncogene serine/threonine-protein kinase (Homo sapiens), P04049 [Y340D,Y341D]; experiment: Residual activity of RAF1 Y340D/Y341D mutant at 0.1 uM by microplate scintillation counting
[4] = target: Mitogen-activated protein kinase 8 (Homo sapiens) (UniProt P45983); experiment: Residual activity of JNK1 at 10 uM by microplate scintillation counting
[5] = target: Serine/threonine-protein kinase PLK1 (Homo sapiens) (UniProt P53350); experiment: Residual activity of PLK1 at 0.1 uM by microplate scintillation counting
[6] = target: CDK1/Cyclin A (Homo sapiens) (UniProt P06493+P20248); experiment: Residual activity of CDK1/Cyclin A at 1 uM by microplate scintillation counting; format: protein-complex assay
[7] = target: Casein kinase I isoform alpha (Homo sapiens) (UniProt P48729); experiment: Residual activity of CK1alpha1 at 10 uM by microplate scintillation counting
[8] = target: T2, Aurora kinase A (Homo sapiens) (UniProt O14965); experiment: Residual activity of Aurora-A at 1 uM by microplate scintillation counting
T2 sequence (whole entry): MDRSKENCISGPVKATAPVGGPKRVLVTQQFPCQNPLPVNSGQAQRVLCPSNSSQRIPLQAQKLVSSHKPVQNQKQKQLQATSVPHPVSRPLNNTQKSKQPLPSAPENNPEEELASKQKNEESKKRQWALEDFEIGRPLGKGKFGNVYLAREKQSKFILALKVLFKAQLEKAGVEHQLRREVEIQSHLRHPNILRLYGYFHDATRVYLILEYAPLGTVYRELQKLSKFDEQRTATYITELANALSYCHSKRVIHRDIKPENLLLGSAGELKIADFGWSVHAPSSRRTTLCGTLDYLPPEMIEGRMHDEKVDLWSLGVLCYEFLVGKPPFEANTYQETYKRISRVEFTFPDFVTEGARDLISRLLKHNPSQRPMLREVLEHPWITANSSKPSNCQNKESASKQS

[9] = target: T3, G protein-coupled receptor kinase 3 (Homo sapiens) (UniProt P35626); experiment: Residual activity of GRK3 at 0.1 uM by microplate scintillation counting
T3 sequence (whole entry): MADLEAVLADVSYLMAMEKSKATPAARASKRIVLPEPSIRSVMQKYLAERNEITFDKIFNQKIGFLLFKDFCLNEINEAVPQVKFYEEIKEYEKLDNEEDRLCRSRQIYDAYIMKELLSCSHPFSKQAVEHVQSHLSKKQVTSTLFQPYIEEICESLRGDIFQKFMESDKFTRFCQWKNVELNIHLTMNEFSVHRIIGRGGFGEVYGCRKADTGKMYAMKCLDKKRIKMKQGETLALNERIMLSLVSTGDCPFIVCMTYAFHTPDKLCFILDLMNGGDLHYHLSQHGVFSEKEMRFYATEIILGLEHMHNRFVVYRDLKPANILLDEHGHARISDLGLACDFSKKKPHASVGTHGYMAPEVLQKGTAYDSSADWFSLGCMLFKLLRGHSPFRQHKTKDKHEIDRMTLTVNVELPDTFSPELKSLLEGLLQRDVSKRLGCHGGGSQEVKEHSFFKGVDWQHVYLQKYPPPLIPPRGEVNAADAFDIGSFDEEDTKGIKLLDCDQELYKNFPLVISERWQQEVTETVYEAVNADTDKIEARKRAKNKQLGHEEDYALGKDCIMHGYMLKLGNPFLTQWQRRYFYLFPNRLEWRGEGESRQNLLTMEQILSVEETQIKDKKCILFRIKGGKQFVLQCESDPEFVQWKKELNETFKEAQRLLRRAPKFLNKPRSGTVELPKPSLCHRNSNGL

[10] = target: Mitogen-activated protein kinase 11 (Homo sapiens) (UniProt Q15759); experiment: Residual activity of p38beta at 0.1 uM by microplate scintillation counting
[11] = target: Casein kinase I isoform gamma-1 (Homo sapiens) (UniProt Q9HCP0); experiment: Residual activity of CK1gamma1 at 10 uM by microplate scintillation counting
Casein kinase I isoform gamma-1 (Homo sapiens), sequence (Q9HCP0 whole entry, looked up, canonical isoform): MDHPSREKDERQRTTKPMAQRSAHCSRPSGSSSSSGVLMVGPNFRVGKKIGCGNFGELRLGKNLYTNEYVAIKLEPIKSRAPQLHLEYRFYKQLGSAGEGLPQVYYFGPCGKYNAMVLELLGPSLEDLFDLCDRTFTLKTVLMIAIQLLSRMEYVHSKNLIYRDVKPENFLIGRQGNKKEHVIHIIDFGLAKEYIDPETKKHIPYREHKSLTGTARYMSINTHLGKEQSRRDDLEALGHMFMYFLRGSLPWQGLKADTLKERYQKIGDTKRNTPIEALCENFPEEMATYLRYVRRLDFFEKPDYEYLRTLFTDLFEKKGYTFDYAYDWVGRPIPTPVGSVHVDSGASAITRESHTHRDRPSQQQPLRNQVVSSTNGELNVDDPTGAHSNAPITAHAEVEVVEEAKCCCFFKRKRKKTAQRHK

Mitogen-activated protein kinase 8 (Homo sapiens), sequence (P45983 whole entry): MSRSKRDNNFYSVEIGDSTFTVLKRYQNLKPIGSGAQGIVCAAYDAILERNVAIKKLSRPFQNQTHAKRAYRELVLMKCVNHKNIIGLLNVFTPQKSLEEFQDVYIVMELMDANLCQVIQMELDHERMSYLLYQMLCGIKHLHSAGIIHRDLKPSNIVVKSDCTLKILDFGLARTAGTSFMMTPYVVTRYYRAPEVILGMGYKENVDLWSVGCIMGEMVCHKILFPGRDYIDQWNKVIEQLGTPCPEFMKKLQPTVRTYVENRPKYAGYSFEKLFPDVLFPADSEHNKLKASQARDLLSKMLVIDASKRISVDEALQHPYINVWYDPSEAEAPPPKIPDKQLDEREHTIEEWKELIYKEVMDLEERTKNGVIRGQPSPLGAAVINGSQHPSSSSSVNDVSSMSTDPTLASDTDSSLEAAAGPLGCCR
Casein kinase I isoform alpha (Homo sapiens), sequence (P48729 2-337 limits assumed): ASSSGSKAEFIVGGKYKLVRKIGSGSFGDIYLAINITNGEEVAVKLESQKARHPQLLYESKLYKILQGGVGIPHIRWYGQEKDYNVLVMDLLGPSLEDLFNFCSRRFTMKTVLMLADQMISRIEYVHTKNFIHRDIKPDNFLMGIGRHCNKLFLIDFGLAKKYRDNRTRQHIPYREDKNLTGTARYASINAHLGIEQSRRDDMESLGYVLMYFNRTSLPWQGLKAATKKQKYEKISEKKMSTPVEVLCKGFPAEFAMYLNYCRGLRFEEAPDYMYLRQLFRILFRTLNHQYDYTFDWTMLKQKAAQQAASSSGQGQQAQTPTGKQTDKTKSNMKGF
Serine/threonine-protein kinase PLK1 (Homo sapiens), sequence (P53350 whole entry): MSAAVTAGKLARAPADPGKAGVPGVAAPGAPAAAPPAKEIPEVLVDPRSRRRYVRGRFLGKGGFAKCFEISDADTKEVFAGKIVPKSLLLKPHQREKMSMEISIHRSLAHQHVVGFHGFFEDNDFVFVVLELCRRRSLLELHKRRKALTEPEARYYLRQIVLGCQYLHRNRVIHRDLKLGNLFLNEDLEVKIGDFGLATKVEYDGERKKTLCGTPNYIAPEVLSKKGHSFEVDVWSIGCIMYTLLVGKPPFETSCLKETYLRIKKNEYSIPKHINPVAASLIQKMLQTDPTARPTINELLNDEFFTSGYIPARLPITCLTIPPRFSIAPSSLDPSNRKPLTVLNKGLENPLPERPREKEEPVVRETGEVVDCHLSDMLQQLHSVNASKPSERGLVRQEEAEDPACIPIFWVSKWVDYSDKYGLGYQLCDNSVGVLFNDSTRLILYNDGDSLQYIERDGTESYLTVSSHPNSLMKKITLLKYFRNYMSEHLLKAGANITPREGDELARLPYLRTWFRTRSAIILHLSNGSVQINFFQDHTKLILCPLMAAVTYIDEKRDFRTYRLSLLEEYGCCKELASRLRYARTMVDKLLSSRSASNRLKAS
Mitogen-activated protein kinase 11 (Homo sapiens), sequence (Q15759 whole entry, canonical isoform): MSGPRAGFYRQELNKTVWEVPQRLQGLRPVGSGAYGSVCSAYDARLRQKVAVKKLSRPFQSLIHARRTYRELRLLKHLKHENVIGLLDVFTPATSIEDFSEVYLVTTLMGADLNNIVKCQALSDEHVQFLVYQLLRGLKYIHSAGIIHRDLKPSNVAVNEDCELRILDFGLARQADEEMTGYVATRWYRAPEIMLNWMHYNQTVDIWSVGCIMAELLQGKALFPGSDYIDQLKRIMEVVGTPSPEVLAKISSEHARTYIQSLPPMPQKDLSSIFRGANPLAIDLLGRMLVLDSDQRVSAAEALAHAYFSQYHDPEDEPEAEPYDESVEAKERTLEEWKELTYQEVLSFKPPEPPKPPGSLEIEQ
CDK1/Cyclin A (Homo sapiens), sequence (P06493 whole entry, looked up, canonical isoform): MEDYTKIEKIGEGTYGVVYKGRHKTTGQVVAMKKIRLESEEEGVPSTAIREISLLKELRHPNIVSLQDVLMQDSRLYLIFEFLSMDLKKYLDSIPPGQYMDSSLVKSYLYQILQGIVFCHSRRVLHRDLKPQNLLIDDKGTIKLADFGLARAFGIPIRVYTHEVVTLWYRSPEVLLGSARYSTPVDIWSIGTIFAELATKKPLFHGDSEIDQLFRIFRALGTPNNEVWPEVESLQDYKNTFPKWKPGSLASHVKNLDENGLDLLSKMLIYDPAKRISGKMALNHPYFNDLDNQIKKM
CDK1/Cyclin A (Homo sapiens), sequence (P20248 whole entry, looked up, canonical isoform): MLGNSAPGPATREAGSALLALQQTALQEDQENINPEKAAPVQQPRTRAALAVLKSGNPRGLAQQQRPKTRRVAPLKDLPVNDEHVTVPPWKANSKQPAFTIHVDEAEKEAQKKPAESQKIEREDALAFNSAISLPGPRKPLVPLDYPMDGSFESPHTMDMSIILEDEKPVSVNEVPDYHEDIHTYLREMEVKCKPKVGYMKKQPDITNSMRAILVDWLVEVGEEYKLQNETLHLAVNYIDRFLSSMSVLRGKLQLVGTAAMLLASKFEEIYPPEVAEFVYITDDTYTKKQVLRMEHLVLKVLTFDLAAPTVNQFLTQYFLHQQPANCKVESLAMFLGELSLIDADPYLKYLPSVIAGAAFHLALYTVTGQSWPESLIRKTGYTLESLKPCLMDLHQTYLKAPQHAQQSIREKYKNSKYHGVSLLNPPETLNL
Proto-oncogene tyrosine-protein kinase Src (Homo sapiens), sequence (P12931 2-536 limits assumed): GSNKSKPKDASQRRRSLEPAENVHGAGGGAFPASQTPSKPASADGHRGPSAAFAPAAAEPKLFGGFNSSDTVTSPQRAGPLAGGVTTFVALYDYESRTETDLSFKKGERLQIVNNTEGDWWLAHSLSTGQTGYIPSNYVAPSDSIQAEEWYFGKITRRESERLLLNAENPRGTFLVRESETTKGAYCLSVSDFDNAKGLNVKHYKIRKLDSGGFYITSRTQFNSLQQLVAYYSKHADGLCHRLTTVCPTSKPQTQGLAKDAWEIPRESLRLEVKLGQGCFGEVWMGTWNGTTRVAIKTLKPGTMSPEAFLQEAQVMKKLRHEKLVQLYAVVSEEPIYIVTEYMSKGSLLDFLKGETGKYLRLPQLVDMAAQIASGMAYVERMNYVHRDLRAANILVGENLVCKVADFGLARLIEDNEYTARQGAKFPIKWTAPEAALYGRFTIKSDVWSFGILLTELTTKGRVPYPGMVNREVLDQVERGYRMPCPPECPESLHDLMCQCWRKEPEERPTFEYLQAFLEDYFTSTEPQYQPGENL

residual activity [1] [%] | residual activity [2] [%] | residual activity [3] [%] | residual activity [4] [%] | residual activity [5] [%] | residual activity [6] [%] | residual activity [7] [%] | residual activity [8] [%] | residual activity [9] [%] | residual activity [10] [%] | residual activity [11] [%] | Compound
83 | 83 | 95 | 305 | 91 | 111 | 139 | 25 | 86 | 104 | 200 | COc1cc2c(Oc3ccc(-c4nc5ccccc5s4)cc3)ncnc2cc1OCCCN1CCCC1
86 | 75 | 114 | 272 | 94 | 101 | 155 | 22 | 94 | 90 | 256 | COc1cc2c(Oc3ccc(-c4nc5ccccc5s4)cc3)ncnc2cc1OCCCN1CCN(C)CC1
53 | 45 | 100 | 264 | 98 | 102 | 144 | 28 | 95 | 105 | 229 | COc1cc2c(Oc3ccc(-c4nc5ccccc5s4)cc3F)ncnc2cc1OCCCN1CCN(C)CC1
